± gives the expanded uncertainty stated by the source.

The data set can be described thus: molar enthalpy of vaporization or sublimation. The settings on record: 298.15 K; Liquid; drop calorimetry.

With `O=C1CCCc2occc21` [6,7-dihydrobenzofuran-4(5H)-one], the molar enthalpy came out at 16.6 ± 1.05 kcal/mol.

The values above are taken from the NIST ThermoML archive (doi:10.1016/j.jct.2012.07.008).
